Experimental findings from US7968526B2, “Antisense oligonucleotides directed to ribonucleotide reductase R2 and uses thereof in the treatment of cancer” (Lorus Therapeutics Inc., priority 2003, dated 2011) are described below.

Data set [1] has as its system SK-OV-3 human ovary adenocarcinoma cells. The data set can be described thus: SK-OV-3 ovary tumour xenograft in CD-1 nude mice, combination with taxol or cisplatin (1.8). Type of data set: in vivo, human cells in mice. Conditions: SEQ ID NO:1 10 mg/kg i.v. every other day 17 times. The protocol: After 52 days the mice were sacrificed and the tumours weighed. […] Mitoxantrone was administered intravenously once at the beginning of the treatments at a dose of 2 mg/kg (FIG. 4A) or once a week for four weeks at a reduced dose of 0.8 mg/kg (FIG. 4B). All treatments were stopped at day 50 (FIG. 4A) or 48 (FIG. 4B), respectively. […] Mitoxantrone was administered intravenously once at the beginning of the treatments at a dose of 2 mg/kg (FIG. 5A) or once a week for four weeks at a reduced dose of 0.8 mg/kg (FIG. 5B). All treatments were stopped at day 42 (FIG. 5A) or 38 (FIG. 5B), respectively. […] A2058 is a metastatic melanoma cell line. […] All treatments were stopped at day 24. […] Taxol was administered intravenously once a week at a dose of 10 mg/kg for three (FIG. 7A) or four weeks (FIG. 7C). Doxorubicin was administered intravenously once a week at a dose of 5 mg/kg for first three weeks (FIG. 7A) or for two weeks (FIG. 7C). All treatments were stopped at day 33 (FIG. 7A) or at day 26 (FIG. 7C), respectively. […] In FIG. 7C, antitumour activities were estimated by the inhibition of tumour volume, which was measured with calipers. Each point represents mean tumour volume calculated from 10 animals per experimental group. […] Taxol was administered intravenously once a week for first three weeks and intraperitoneally once a week for next two weeks at a dose of 10 mg/kg. Cisplatin was administered intravenously once a week for first three weeks and intraperitoneally once a week for next two weeks at a dose of 4 mg/kg. All treatments were stopped at day 40. Antitumour activities were estimated by the inhibition of tumour volume, which was measured with caliper. Each point represents mean tumour volume calculated from 9 animals per experimental group.

Data set [2] has as its system R3 mouse fibrosarcoma cells. The data set can be described thus: R3 mouse fibrosarcoma tumour growth in C3H mice. In kind it is in vivo. As to the method:
Treatments lasted for 14 days thereafter. Anti-tumour activities were estimated by the inhibition of tumour volume, which was measured with a calliper at two-day intervals starting from day 9. Each point in FIG. 27A represents the mean tumour volume calculated from 6-7 animals per experimental group. […] SEQ ID NO:1 had significant anti-tumour activity compared to saline (P=0.0006), scrambled (P=0.0001) and mismatched (0.0002) controls.
At the end of the treatments, the animals were sacrificed, tumours were excised and their weights were measured. Each bar in FIG. 27C represents mean tumour weight and standard error calculated from 6-8 animals per experimental group. P values compared to saline were as follows: 0.5 mg/kg (P=0.04), 2 mg/kg (P=0.0001), 5 mg/kg (P=0.0015), 10 mg/kg (P=0.0001), 30 mg/kg (P=0.0001).

In data set [3] the test system is MDA-MB-231 human breast cancer cells. The data set can be described thus: MDA-MB-231 breast tumour growth in CD-1 nude mice (3.3). In kind it is in vivo, human cells in mice. The protocol: Treatments lasted for 14 days thereafter. Antitumour activities were estimated by the inhibition of tumour volume, which was measured with a caliper on four different occasions over the treatment period. Each point represents mean tumour volume calculated from 5 animals per experimental group. […] Control animals (control) received saline alone for the same period. At the end of the treatments, the animals were sacrificed, tumours were excised and their weights were measured. Each bar represents mean tumour weight calculated from 6 animals per experimental group. […] Treatments lasted for 24 days thereafter. Antitumour activities were estimated by the inhibition of tumour volume, which was measured with a caliper at two-day intervals over the treatment period. Each point represents mean tumour volume calculated from 4 animals per experimental group. […] Treatments lasted for 24 days thereafter. Antitumour activities were estimated by the inhibition of tumour volume, which was measured with a caliper at two-day intervals over the treatment period. Each point represents mean tumour volume calculated from 4 animals per experimental group. […] Each point represents mean tumour volume calculated from 5 animals per experimental group. […] Antitumour activities were estimated by the inhibition of tumour volume, which was measured with a caliper on four different occasions over 16-day period. Each point represents mean tumour volume calculated from 5 animals per experimental group. […] Antitumour activities were estimated by the inhibition of tumour volume, which was measured with a caliper at two-day intervals over the treatment period. Each point represents mean tumour volume calculated from 5 animals per experimental group. […] Antitumour activities were estimated by the inhibition of tumour volume, which was measured with a caliper at various time intervals over the span of 30 days. Each point represents mean tumour volume calculated from 6 animals per experimental group. […] Antitumour activities were estimated by the inhibition of tumour volume, which was measured with a caliper. […]

For the substance “5′-GGCTAAATCGCTCCACCAAG-3′ (all phosphorothioate, sugars by position and methylation of C not given here) [SEQ ID NO: 1, fully phosphorothioated antisense oligonucleotide that hybridizes to the coding region of R2 mRNA]”, the “tumour volume data as percentage of saline control” value in data set [1] (SK-OV-3 (ovary), CD-1, Taxol 10 mg/kg weekly, Cisplatin 4 mg/kg weekly) came out at 42%. The “Antitumour effect (tumour volume, FIG. 8)” value in data set [1] (SK-OV-3, CD-1 nude mice, taxol 10 mg/kg, cisplatin 4 mg/kg weekly) is “significant delay of tumour growth compared to saline control”. Further, the “Inhibition of tumour weight” value in data set [2] (Mouse Fibrosarcoma) was roughly 80%; in data set [3] (Human Breast Adenocarcinoma, Day 31 after tumour implantation) it was ~80% on Day 31 after tumour implantation. For the same substance, the “Dose dependence of tumour weight” value in data set [2] (Mouse Fibrosarcoma in C3H mice at doses of 0.5 to 30 mg/kg) is given as “Dose-dependent decrease in tumour weight in”. The “Inhibition of tumour volume” value in data set [2] (Mouse Fibrosarcoma in C3H mice, Day 15 after tumour implantation) was “approximately 80% on Day 15 after tumour laimpntation”. The “Anti-tumour efficacy (tumour volume, FIG. 27A)” value in data set [2] (R3, C3H mice, 5 mg/kg i.v. every other day, 14 days) is “significant anti-tumour efficacy compared to saline, scrambled and mismatched controls”. In addition, the “Dose dependence of anti-tumour activity (FIG. 27C)” value in data set [2] (R3, C3H mice, 0.5-30 mg/kg) is “dose-dependent anti-tumour activity”. In data set [3] (Human Breast Adenocarcinoma), the “Inhibition of tumour size” value is listed as “Inhibition of tumour size by approximately 80%”. For the same substance, the “Inhibitory effect on tumour growth (tumour volume, FIG. 18B)” value in data set [3] (MDA-MB-231, CD-1 nude mice, 10 mg/kg i.v. every other day, 24 days) was “strong inhibitory effects on the growth of human breast carcinoma”.
